Test results taken from patent US20200123127A1, “REMOVAL OF SENESCENCE-ASSOCIATED MACROPHAGES” (EVERON BIOSCIENCES, INC., priority 2016, published 2020).
Where two headings read alike, the source gives them in different places.

B1: IFN-γ: type II interferon, M1-inducing agent (protein, UniProt P01579 24-161, looked up)
Interferon gamma: QDPYVKEAENLKKYFNAGHSDVADNGTLFLGILKNWKEESDRKIMQSQIVSFYFKLFKNFKDDQSIQKSVETIKEDMNVKFFNSNKKKRDDFEKLTNYSVTDLNVQRKAIHELIQVMAELSPAAKTGKRKRSQMLFRG

Legend:
[1] = test system: adult rat dermal fibroblasts (RDF); assay: Resazurin viability assay, senescent vs proliferating rat dermal fibroblasts; type: cell-based; details: for IC50: Rattus norvegicus, Fibroblast
Experimental: Cytotoxicity of A1.1 analogs against bleomycin-induced senescent human NDFs and rat dermal fibroblasts (RDFs). Activity of analogs was assessed from dose-response curves against irradiation- or bleomycin-induced senescent and proliferating cells to calculate IC50s (uM). The fold difference of proliferating versus senescent cell IC50s was used to assess the level of specific anti-senescent activity of the compounds.
For generation senescent human neonatal dermal fibroblasts (NDFs) and adult rat dermal fibroblasts (RDFs), cells are treated at ˜10 ug/ml bleomycin for 3 days (for bleomycin-induced senescence) or irradiated once at 20 Gy using a gamma irradiator (Cs source), followed by at least 7 day recovery in fresh medium for induction of senescence. Senescent and non-senescent (proliferating) cells for each cell line are plated into 384-w plate, followed by 72 hour exposure to a dose titration of compounds. Viability measurements are estimated using the resazurin viability assay. Using GraphPad Prism 5, the IC50 values are calculated from the non-linear regression of log-transformed compound concentrations versus dose-response normalized to background and non-treated controls.

[2] = test system: p16(Ink4a) in mLF and mVAT fibroblasts; assay: Modulation of p16(Ink4a) in mouse lung and visceral adipose tissue-derived fibroblasts; type: cell-based; details: for Modulation of p16(Ink4a): mLF and mVAT Senescent: 20Gy irradiation for senescence induction; for Modulation of p16(Ink4a): mLF and mVAT Proliferating: without irradiation
From the text: We next sought to determine whether immunomodulatory agents, and other small molecules, were capable of selectively modulating p16(Ink4a) expression in SAMs by comparing their effects on p16 expression in SAMs to that of mouse lung fibroblasts (mLF) and mouse visceral adipose tissue-derived fibroblasts (mVAT). […] Immunomodulatory agents cause little to no change in p16 expression in fibroblasts. For example, mouse fibroblasts are reported to respond to LPS and IL-4 (expressing TLR4 and IL-4R, respectively), yet these agents are unable to modulate p16 in fibroblasts.

[3] = test system: adipose-derived mesenchymal stromal cells (AdMSC) from p16Ink4a/Luc mice; assay: Luciferase and β-galactosidase activities in senescent and proliferating adipose-derived mesenchymal stromal cells; type: cell-based, mouse
From the text: FIG. 10. Elevated p16(Ink4a) and β-galactosidase is regulated by immunomodulatory agents in macrophages, but not in mesenchymal SCs. Primary cultures of adipose-derived mesenchymal stromal cells (AdMSC) isolated from p16^Ink4a/Luc mice were irradiated (20 Gy) and cultured for 10 days for senescence induction. Mock irradiated cells were used as a proliferating cell control. Response of senescent and proliferating AdMSCs to immunomodulatory agents were compared to that of peritoneal lavage cells elicited by our alginate bead model. A-D) Dose-response curves of LPS (top panels: […]) and Poly(I:C) (bottom panels: C&D) on p16(Ink4a) promoter-dependent luciferase activity (left panels: A&C) and beta-galactosidase activity measured via 4-MUG hydrolysis (right panels: B&D) after 72 hr treatment. No effect on viability was observed via CyQuant Direct assay (>80% viability). Results are shown as the mean±standard deviation for at least 3 experiments.
Primary cultures of adipose-derived mesenchymal stromal cells (mAdMSC) were established from the stromal vascular fraction of inguinal adipose tissues of young p16^LUC mice, as described. Isolated adherent cultures were maintained in DMEM/F12 medium supplemented with 15% FBS and 1× anti-biotic/anti-mycotic solution (Thermo Fisher Scientific) in a tri-gas tissue culture incubator at 37° C., 5% CO2 and 3% O2. Medium was change twice per week, and cell passaging performed when cells reached ˜80-90% confluency. For induction of senescence, passage 1 cells were irradiated in suspension at 20 Gy, and replated cultures were maintained at 21% 02.
We investigated whether the mechanisms regulating the expression of these traits in macrophages were similar to those found in SCs. Using cells isolated from p16^Ink4a/Luc mice, the dose-dependent response of luciferase and β-galactosidase activities to immunomodulatory stimuli in macrophages was compared to that of proliferating and irradiation-induced senescent adipose-derived mesenchymal stromal cells. […] LPS stimulation of alginate bead model-elicited macrophages reduced luciferase activity, with maximal inhibition (˜85%) observed at concentrations ≥1 ng/mL (FIG. 10A). In addition, β-galactosidase activity was reduced by 40% at 10 ng/mL (FIG. 10B).
In contrast, luciferase and β-galactosidase activities were unaltered in senescent and proliferating mesenchyme in response to LPS (up to 1 μg/mL) (FIGS. 10A&B).

[4] = light or radiation study, senescent RDF, irradiation-induced, 72 hour exposure, resazurin, read-out: IC50 RDFsen.irr
[5] = proliferating RDF, 72 hour exposure, resazurin, read-out: IC50 RDFprolif
[6] = senescent RDF, bleomycin-induced, 72 hour exposure, resazurin, read-out: IC50 RDFsen.bleo

Molecule	Modulation of p16(Ink4a): mLF and mVAT Senescent [2]	Modulation of p16(Ink4a): mLF and mVAT Proliferating [2]	p16(Ink4a) response of senescent vs proliferating mesenchymal cells [3]	other results
CCOC(=O)c1sc(SCc2ccccc2)c2c1CC(c1ccc(OC)cc1)C/C2=N\O (stereo not shown) [Example A1.1]	–	–	–	Selectivity (Prolif/Sen) ([1]; RDF, Bleomycin): >4.6; Selectivity (Prolif/Sen) ([1]; RDF, Irradiation): >4.4; IC50 ([1]; light or radiation study, RDF, senescence induction: Irradiation, read-out: Activity against Senescent Cells (IC50; uM)): 4.5 µM; IC50 [1, 4]: < 5 µM; IC50 ([1]; RDF proliferating, read-out: Activity against Proliferating Cells (IC50; uM)): > 20 µM; IC50 ([1]; RDF, senescence induction: Bleomycin, read-out: Activity against Senescent Cells (IC50; uM)): 4.4 µM; IC50 [1, 5]: > 20 µM; IC50 [1, 6]: < 10 µM
COc1ccc(C2CC(=NO)c3c(SCc4ccccc4)sc(C(=O)NCc4cccc(F)c4)c3C2)cc1 (stereo not shown) [Example A1.6, 3-(Benzylthio)-N-(3-fluorobenzyl)-4-(hydroxyimino)-6-(4-methoxyphenyl)-4,5,6,7-tetrahydrobenzo[c]thiophene-1-carboxamide]	no change	no change	–	IC50 [1, 4]: < 5 µM; IC50 [1, 5]: > 20 µM; IC50 [1, 6]: < 5 µM
O=C(NCCCc1cn[nH]c1)c1ccc(-c2ccncc2)c(C#Cc2ccc(F)cc2)c1 [OT-82]	no change	no change	–	–
IFN-α	–	–	lacking a differential response	–
IL-4: M2-polarizing cytokine	no change	no change	lacking a differential response	–
IL-13: M2-polarizing cytokine	no change	no change	lacking a differential response	–
Poly(I:C)	no change	no change	–	–
B1	–	–	lacking a differential response	–
